In patent publication US10668156B2, “Active-ingredient-containing solid dispersions based on diethylaminoethyl methacrylate copolymers” (BASF SE, priority 2012, dated 2020):

How the values were obtained:
Format in all cases: physicochemical
[1] = Film method: loading capacity of active ingredient in polymer films, microscopic assessment after storage; conditions: for Loading capacity, active ingredients in %, Films with Kollicoat ® Smartseal + 6 mol partially neutralized: 6 mol % of basic groups neutralized with adipic acid; for Loading capacity, active ingredients in %, Films with Kollicoat ® Smartseal + 6 mol partially neutralized / Loading capacity, active ingredients in %, Films with Kollicoat ® Smartseal + 8 mol partially neutralized / Loading capacity, active ingredients in %, Films with Eudragit ® EPO / Loading capacity, active ingredients in %, Films with Kollicoat ® Smartseal freeze-dried: no crystals in film, storage 7 days 23° C./54% relative humidity; for Loading capacity, active ingredients in %, Films with Kollicoat ® Smartseal + 8 mol partially neutralized: 8 mol % of basic groups neutralized with succinic acid; for Loading capacity, active ingredients in %, Films with Eudragit ® EPO / Loading capacity, active ingredients in %, Films with Kollicoat ® Smartseal freeze-dried: molecularly disperse dissolved active ingredient
Text: The film method is a process in which a clear solution of the polymer and of the active ingredient is molded to give a thin film which solidifies as a result of the solvent evaporating. Clear solution means that no clouding is evident upon normal inspection. This method is suitable in particular as a screening method in order to determine the loading limits of the solid dispersions in a simple manner. For the screening process, the film can be produced by pouring the solution with the corresponding concentrations of polymer and active ingredient onto glass plates and drawing it out with the help of a blade to give the film. Usually, the films are drawn to layer thicknesses of from 50 to 200 μm. The resulting films are then dried by drawing off the solvent, and solidified as a result. In one or more embodiments, the solvent is removed in vacuo, for example at 1 hPa to 100 hPa. […] Additionally, the removal of the solvent can be effected by the action of temperature.
For the screening process, the films produced are then stored under controlled climatic conditions for defined periods of time—generally 14 days.
The films can then be evaluated by microscope at 40 times magnification. Clear films are a sign of amorphous systems. Cloudy films point to relatively large crystalline fractions.
To prepare the polymer/active ingredient mixture, the substances were weighed in the respective amounts into a 50 ml penicillin bottle.
All of the mixtures were stirred for 24 h on a magnetic stirrer until the constituents had dissolved. After visually assessing the solution (clear solution), the solvent was drawn out on a glass plate using a 120 μm blade. The resulting film was dried for 0.5 h at room temperature of 22+/−2° C. in a fume cupboard and then for 0.5 h in a vacuum drying cabinet at 50° C. and […]. […] Clear films (without active ingredient crystals) indicate molecularly disperse solutions and cloudy films (with active ingredient crystals) indicate crystalline systems.

[2] = Spray-drying: loading capacity assessed by XRD; conditions: active ingredient in Kollicoat ® Smartseal
Experimental: (§1) To prepare the polymer/active ingredient mixture, the substances were weighed into an appropriate storage vessel. The corresponding amount of solvent was added and the mixture was stirred until the polymer and the active ingredient had completely dissolved. […] The solids fraction of the spraying solution was 20% by weight for all experiments. The spray-drying was carried out on a laboratory scale.
(§2) The liquid to be dried was atomized using a two-material nozzle. A heated gas (here nitrogen) flowing concurrently dries the distributed drops to give solid particles with particle diameters in the range 5-20 μm. In the entry area of the spray drier, the drying gas is supplied tangentially. The dry product particles are separated off in a cyclone.
Loading capacity of Kollicoat® Smartseal with different active ingredients in the spray-drying. Spray-drying experiments carried out on the laboratory scale: • 1. Itraconazole: Kollicoat® Smartseal with 40+50% (w/w) itraconazole • 2. Fenofibrate: Kollicoat® Smartseal with 40+50% (w/w) fenofibrate • 3.

[3] = Spray-drying: loading capacity assessed by DSC; conditions: active ingredient in Kollicoat ® Smartseal
Experimental: as §1, §2

| SMILES | Loading capacity, active ingredients in %, Films with Kollicoat ® Smartseal + 6 mol partially neutralized [1] [%] | Loading capacity, active ingredients in %, Films with Kollicoat ® Smartseal + 8 mol partially neutralized [1] [%] | Loading capacity, active ingredients in %, Films with Eudragit ® EPO [1] [%] | Loading capacity, active ingredients in %, Films with Kollicoat ® Smartseal freeze-dried [1] [%] | Loading film method ([1]; active ingredient in Kollicoat ® Smartseal) [%] | Loading spray-drying [XRD, %] [2] [%] | Loading spray-drying [DSC, %] [3] [%] |
| --- | --- | --- | --- | --- | --- | --- | --- |
| NC(=O)N1c2ccccc2C=Cc2ccccc21 [Carbamazepine] | 30 | 30 | <10 | 20 | – | – | – |
| Clc1ccccc1C(c1ccccc1)(c1ccccc1)n1ccnc1 [Clotrimazole] | 35 | 35 | 20 | 35 | – | – | – |
| C#C[C@]1(O)CC[C@H]2[C@@H]3CCC4=Cc5oncc5C[C@]4(C)[C@H]3CC[C@@]21C [Danazol] | 50 | 50 | <10 | 50 | – | – | – |
| CC(C)Cc1ccc(C(C)C(=O)O)cc1 (stereo not drawn) [Ibuprofen 50, Ibuprofen] | 30 | 30 | – | – | – | – | – |
| COc1ccc2cc([C@H](C)C(=O)O)ccc2c1 [Naproxen] | – | – | 30 | – | 50 | 50 | 50 |
